{"source": "patent US9018188B2", "about": "“MicroRNA inhibitors” (Ottawa Hospital Research Institute, priority 2011, dated 2015)", "key": {"TA muscles": {"test_system": "TA muscles", "experiment": "High-resolution respirometry on TA muscles after ASO treatment", "format": "in vivo, mouse", "description": "To quantify bioenergetic effects of miR-133 ASO induced BAT in muscle, Applicant performed high-resolution respirometry on TA muscles after 2 months of either control- or miR-133 ASO treatment (C57BL/6 male fed on RD, n=6 in each treatment group). […] This marked difference in the response to FA is consistent with reported acute activation of mitochondrial respiration rates in brown adipocytes exposed to fatty acids (Matthias et al., 2000).\nSurgically extracted tibialis anterior (TA) and contralateral soleus (SOL) muscles were immediately placed in ice-cold biopsy preservation solution (BIOPS) containing […], 7.23 mM K2EGTA buffer, 0.1 μM free calcium, 20 mM imidazole, 20 mM taurine, 50 mM 2-(N-Morpholino)ethanesulfonic acid hydrate (K-MES), 0.5 mM dithiothreitol (DTT), 6.56 mM […], 5.77 mM ATP, and 15 mM phosphocreatine (pH 7.1). The TA muscle was cut longitudinally into 4 equal parts, 2 of which were assessed by respirometry as intact cells and 2 after chemical permeabilization of the sarcolemma. The SOL muscle was cut in half longitudinally and both sections were permeabilized before respirometry. Prior to permeabilization muscle samples were gently dissected with two pairs of sharp forceps, achieving a high degree of fibre separation verified microscopically. Chemical permeabilization was achieved by incubation of the fibres with saponin (50 μg/mL) in 2 mL of BIOPS for 30 minutes at 4° C. (Gnaiger, 2009b). Permeabilized samples were then rinsed with a mitochondrial respiration medium (MiR05) containing 0.5 mM EGTA, 3 mM MgCl2.6H2O, 60 mM K-lactobionate, 20 mM taurine, 10 mM KH2PO4, 20 mM HEPES, 110 mM sucrose, and 1 g/L bovine serum albumin (pH 7.1).\nMuscle bundles (both intact TA, and permeabilized TA and SOL) were blotted and measured for wet weight in a balance controlled for constant relative humidity, providing hydration consistency and stability of weight measurements. Each sample was then placed into a single chamber of the high-resolution Oroboros Oxygraph-2k (Oroboros, Innsbruck, Austria) containing MiR05 solution and measured at 37° C. The Oxygraph is a two-chamber titration-injection respirometer with an oxygen detection limit of up to 0.5 pmol·sec^−1·mL^−1. Standardized instrumental calibrations were performed to correct for back-diffusion of oxygen into the chamber from the various components, leak from the exterior, and sensor oxygen consumption. Oxygen flux was resolved by software allowing nonlinear changes in the negative time derivative of the oxygen concentration signal (Oxygraph 2k, Oroboros, Innsbruck, Austria).\nLeak respiration was induced with the addition of malate (2 mM) and octanoyl carnitine (0.2 mM). This state represents the oxygen consumption of an unaltered and intact electron transport system (ETS) without the exogenous provision of adenylates. In the LN state, the chemiosmotic gradient is at maximum and oxygen flux represents proton leak, slip, and cation cycling in muscle (Pesta and Gnaiger, 2011) and maximal respiration in BAT induced by fatty acids (Matthias et al. 2000). Further uncoupling of the ETS in muscle cells was assessed with the proton ionophore, carbonyl cyanide p-(trifluoromethoxy) phenylhydrazone (FCCP; 0.7 μM per titration up to concentrations ranging from 2.5-4 μM) to achieve a maximal uncoupling response.\nLeak respiration in the absence of adenylates (LN) was induced with the addition of malate (2 mM) and octanoyl carnitine (0.2 mM). Lipid oxidative phosphorylation capacity (PETF) and maximal electron flow through electron transferring-flavoprotein (ETF) was determined following the addition of ADP (5 mM). […]"}, "[1]": {"experiment": "Indirect calorimetry, physical activity and food intake", "format": "in vivo, mouse", "description": "To assess whether miR-133 ASO treatment leads to increased whole-body energy expenditure, Applicant carried out indirect calorimetry studies at 2-3 months after ASO treatment on control- and miR-133 ASO treated mice (C57BL/6, male, individually caged, n=5 per treatment group per diet group; FIGS. 6C & 7B). […] Intriguingly, this amount of energy expenditure is coincident with the increase of mitochondrial respirometry-measured energy expenditure in miR-133 ASO treated TA muscles after adjustment with TA muscle mass (FIG. 7A; 0.3 cal·hour^−1·le^−1×75 mg=0.0225 kcal·hour^−1).\nThis discrepancy may be related to the abnormally low respiratory exchange ratio (˜0.76) in the control mice fed with HFD (FIG. 7D), which indicates an increased proportion of lipid oxidation in the control mice. […] In addition, miR-133 ASO treatment also led to much improved glucose tolerance in both diet groups (FIGS. 6E & 7F).\nWhole-body O2 consumption and CO2 production was measured using an open circuit four-chamber indirect calorimetry system with automatic temperature and light controls (Columbus Instruments). Physical activities during indirect calorimetry was measured using infrared laser beam sets. Mice had access ad libitum to food and water in respiration chambers. Data were recorded for a 24 hour period with light between 06:00-18:00."}}}
{"substance": "*mA*mUmAmGmCmUmGmGmUmUmGmAmAmGmGmGmGmAmC*mC*mA*mA*mAChl [miR-133 ASO]", "values": [{"measurement": "additional energy expenditure in the treated TA muscle from uncoupling respiration", "setting": "TA muscles; by calculation", "result": 0.3, "unit": "cal/h/mg"}, {"measurement": "higher respiration rate versus control", "setting": "TA muscles; intact TA muscle with FA", "result": 1.75, "unit": "fold"}, {"measurement": "mitochondrial respiration rate after titration of FA (octanoyl carnitine), uncoupled/intact cells", "setting": "TA muscles; intact TA muscle, 2 months after treatment, C57BL/6 male on RD, n=6", "result": "13.5±1", "unit": "pmol·sec^−1·lo^−1"}, {"measurement": "respiration rate in response to ADP (state-3 respiration mediated by ETF)", "setting": "TA muscles; permeabilized TA muscle", "result": "unchanged"}, {"measurement": "state 3 respiration rates with complex I+II substrates (P I+II) versus control", "setting": "TA muscles; permeabilized TA muscle, addition of succinate", "result": "no difference"}, {"measurement": "electron transport through complex I (NADH dehydrogenase) respiration rate", "setting": "TA muscles; permeabilized TA muscle, after titration of glutamate, p=0.2 versus control", "result": "33±3", "unit": "pmol·sec^−1lo^−1"}, {"measurement": "energy expenditure or physical activity compared to control mice", "setting": "[1]; HFD, dark cycle", "result": "No significant increase"}, {"measurement": "physical activities", "setting": "[1]; HFD, light cycle", "result": "without difference"}, {"measurement": "total energy expenditure", "setting": "[1]; HFD, light cycle", "result": "significantly increased"}, {"measurement": "energy expenditure", "setting": "[1]; RD, dark cycle", "result": "conspicuously high"}, {"measurement": "physical activities", "setting": "[1]; RD, dark cycle", "result": "increased"}, {"measurement": "physical activities", "setting": "[1]; RD, light cycle", "result": "without change"}, {"measurement": "total energy expenditure", "setting": "[1]; RD, light cycle, 2-3 months after treatment", "result": "significant increase"}, {"measurement": "24-hour food intake versus control mice", "setting": "[1]; both diet groups", "result": "comparable"}]}
